System: multidrug-resistant K. pneumoniae (MDR)
Assay: CFU measuring assay / MBC calculation
Format: cell-based, Klebsiella pneumoniae
Settings: 90 min at 37° C., linear regression, mean ± s.d.
Description: For the CFU measuring assay, 50 μL of different concentrations of Se NPs, Se NP-ε-PL or pure ε-PL in PBS solution was added into each well of 96-well microplates, then 50 μL MHB with 2.5×10^6 cells/mL bacteria were added into each well. After incubating the microplate at 37° C. for 90 min, the bacterial solutions were diluted 10^−1, 10^−2, 10^−3 and 10^−4 times, then 10 μL of each dilution was transferred onto agar plates with MHB. The agar plates were incubated overnight, before the bacterial colony forming units were observed and measured.
Concentration-killing curves were plotted with CFUs/mL as a function of antibacterial agent concentration, and linear regression analysis was used to determine the lowest concentration (MBC) at which the CFU/mL becomes zero.

ε-poly-L-lysine [ε-PL]
MBC: 24.7 ± 0.5 µg/mL
